According to ChEMBL document CHEMBL5038598, “Design and Synthesis of Pyrrolo[2,3-d]pyrimidine-Derived Leucine-Rich Repeat Kinase 2 (LRRK2) Inhibitors Using a Checkpoint Kinase 1 (CHK1)-Derived Crystallographic Surrogate” (J Med Chem, 2021):
Calls of active or inactive are those of the source. The rule behind the calls is not given here.

Assays:
[1] = Half life in Sprague-Dawley rat plasma at 1 mg/kg, IV […]; type: ADME, organism-based
[2] = target: T1, Leucine-rich repeat serine/threonine-protein kinase 2 (Mus musculus, UniProt Q5S006); assay: Inhibition of LRRK2-WT in C57BL/6 mouse brain at 10 to 150 mg/kg and measured after 1 hrs by western blotting; type: organism-based
[3] = target: T2, Phosphatidylinositol 4-kinase beta (Homo sapiens, UniProt Q9UBF8); assay: Inhibition of PI4KB expressed in human PBMCs measured at 10 uM by KiNativ profiling analysis relative to control
T2 sequence (Q9UBF8 2-816 limits assumed): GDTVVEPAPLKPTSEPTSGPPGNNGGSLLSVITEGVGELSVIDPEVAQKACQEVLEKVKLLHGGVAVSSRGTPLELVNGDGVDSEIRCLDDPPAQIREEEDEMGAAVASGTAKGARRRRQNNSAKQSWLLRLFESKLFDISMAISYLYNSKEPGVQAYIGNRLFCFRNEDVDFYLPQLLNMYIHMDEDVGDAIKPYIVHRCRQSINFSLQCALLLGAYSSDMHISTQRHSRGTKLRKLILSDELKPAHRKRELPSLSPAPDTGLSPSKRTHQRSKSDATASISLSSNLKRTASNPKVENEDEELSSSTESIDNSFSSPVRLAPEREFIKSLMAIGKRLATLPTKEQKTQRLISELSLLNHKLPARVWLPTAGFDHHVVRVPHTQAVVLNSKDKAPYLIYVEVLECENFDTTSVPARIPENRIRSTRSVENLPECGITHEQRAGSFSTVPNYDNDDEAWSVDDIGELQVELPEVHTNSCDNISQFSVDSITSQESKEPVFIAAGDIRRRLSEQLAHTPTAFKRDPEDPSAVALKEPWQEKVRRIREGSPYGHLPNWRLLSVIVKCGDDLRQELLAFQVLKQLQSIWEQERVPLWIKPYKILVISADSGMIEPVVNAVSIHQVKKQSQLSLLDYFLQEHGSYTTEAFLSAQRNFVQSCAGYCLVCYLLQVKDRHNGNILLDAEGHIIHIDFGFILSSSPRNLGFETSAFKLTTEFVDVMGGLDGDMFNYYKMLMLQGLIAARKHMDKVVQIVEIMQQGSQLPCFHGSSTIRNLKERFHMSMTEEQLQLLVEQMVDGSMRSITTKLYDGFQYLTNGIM

[4] = Clearance in Sprague dawley rat plasma at 1 mg/kg, IV relative to liver blood flow; type: ADME, organism-based
[5] = target: T3, Leucine-rich repeat serine/threonine-protein kinase 2 (Homo sapiens, UniProt Q5S007); assay: Binding affinity to human LRRK2 WT expressed in mammalian system assessed as dissociation constant measured at 1 uM by DiscoveRx KINOMEscan assay
T3 sequence (Q5S007 whole entry): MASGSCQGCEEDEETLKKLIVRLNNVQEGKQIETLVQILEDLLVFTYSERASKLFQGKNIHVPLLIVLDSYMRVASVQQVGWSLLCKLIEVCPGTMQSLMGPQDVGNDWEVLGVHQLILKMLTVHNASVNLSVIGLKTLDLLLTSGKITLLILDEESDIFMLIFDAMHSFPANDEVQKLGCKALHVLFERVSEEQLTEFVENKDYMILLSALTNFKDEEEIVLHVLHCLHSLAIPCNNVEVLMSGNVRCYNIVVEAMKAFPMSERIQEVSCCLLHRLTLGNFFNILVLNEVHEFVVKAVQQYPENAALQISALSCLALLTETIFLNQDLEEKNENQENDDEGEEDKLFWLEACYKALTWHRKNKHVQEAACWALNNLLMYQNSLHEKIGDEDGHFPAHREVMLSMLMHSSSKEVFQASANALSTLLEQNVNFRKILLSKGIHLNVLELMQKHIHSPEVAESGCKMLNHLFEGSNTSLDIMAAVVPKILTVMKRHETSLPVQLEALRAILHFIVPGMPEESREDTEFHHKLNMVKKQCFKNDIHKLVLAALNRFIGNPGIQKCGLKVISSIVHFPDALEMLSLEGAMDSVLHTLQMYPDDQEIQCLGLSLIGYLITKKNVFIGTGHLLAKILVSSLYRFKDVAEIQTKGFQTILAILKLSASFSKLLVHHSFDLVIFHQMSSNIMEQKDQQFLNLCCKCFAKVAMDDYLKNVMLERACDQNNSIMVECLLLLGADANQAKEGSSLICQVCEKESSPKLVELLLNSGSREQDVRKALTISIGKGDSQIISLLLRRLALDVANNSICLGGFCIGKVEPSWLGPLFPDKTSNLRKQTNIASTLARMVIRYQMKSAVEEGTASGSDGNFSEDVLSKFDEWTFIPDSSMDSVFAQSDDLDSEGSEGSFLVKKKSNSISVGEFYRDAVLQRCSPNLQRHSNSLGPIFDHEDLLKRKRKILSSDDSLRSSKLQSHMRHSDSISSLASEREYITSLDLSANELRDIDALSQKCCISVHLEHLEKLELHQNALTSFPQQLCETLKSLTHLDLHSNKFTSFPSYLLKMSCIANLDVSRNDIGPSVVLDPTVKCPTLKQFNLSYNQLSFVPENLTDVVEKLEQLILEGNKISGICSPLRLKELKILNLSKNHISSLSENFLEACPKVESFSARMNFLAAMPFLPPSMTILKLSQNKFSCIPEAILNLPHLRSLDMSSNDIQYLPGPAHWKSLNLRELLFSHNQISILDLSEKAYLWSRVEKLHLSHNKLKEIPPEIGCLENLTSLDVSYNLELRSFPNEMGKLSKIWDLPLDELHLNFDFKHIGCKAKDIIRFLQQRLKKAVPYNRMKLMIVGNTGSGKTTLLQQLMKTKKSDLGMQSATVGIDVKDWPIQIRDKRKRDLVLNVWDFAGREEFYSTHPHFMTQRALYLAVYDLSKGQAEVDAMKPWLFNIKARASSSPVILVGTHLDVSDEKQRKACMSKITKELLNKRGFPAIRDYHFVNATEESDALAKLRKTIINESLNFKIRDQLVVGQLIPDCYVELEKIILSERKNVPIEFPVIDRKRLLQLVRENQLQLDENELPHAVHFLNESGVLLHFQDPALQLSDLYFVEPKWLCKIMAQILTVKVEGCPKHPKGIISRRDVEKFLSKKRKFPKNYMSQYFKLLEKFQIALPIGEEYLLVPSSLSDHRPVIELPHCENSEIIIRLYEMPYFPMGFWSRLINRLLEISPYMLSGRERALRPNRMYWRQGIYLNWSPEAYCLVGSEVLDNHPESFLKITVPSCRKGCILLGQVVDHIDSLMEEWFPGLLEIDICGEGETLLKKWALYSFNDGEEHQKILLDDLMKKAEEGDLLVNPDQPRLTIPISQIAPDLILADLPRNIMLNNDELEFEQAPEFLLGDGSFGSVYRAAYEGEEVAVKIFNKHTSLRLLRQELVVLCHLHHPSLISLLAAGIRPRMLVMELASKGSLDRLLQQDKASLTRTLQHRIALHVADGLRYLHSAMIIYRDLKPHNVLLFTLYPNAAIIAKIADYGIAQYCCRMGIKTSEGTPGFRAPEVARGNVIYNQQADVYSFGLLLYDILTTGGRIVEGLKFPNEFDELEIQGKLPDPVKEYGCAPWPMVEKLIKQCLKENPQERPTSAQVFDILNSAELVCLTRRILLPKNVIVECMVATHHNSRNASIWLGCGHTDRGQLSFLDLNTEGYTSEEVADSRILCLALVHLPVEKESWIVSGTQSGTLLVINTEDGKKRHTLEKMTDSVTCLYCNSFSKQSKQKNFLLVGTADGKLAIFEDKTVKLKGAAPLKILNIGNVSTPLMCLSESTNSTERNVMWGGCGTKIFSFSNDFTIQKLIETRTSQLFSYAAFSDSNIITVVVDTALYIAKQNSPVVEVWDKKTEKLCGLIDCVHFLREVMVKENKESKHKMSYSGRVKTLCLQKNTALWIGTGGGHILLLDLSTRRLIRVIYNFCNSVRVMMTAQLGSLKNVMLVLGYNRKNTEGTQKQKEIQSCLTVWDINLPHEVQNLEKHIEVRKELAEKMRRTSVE

[6] = Ratio of unbound drug level in Md1a/1b BCRP knockout C57BL/6 mouse brain to plasma at 5 mg/kg, sc and measured after 0.5 hrs; type: ADME, organism-based; conditions: in vivo
[7] = Volume of distribution in steady state in Sprague-Dawley rat plasma at 1 mg/kg, IV […]; type: ADME, organism-based; conditions: read-out: Vdss
[8] = target: T4, Leucine-rich repeat serine/threonine-protein kinase 2 (Homo sapiens, UniProt Q5S007, G2019S); assay: Inhibition of recombinant human GST tagged truncated LRRK2 G2019S mutant using fluorescein-labeled LRRKtide as substrate in presence of ATP preincubated for 50 mins followed by anti-phospho-LRRKtide antibody addition and measured after 30 mins by TR-FRET based Lanthascreen kinase activity assay
T4 sequence (Q5S007 whole entry G2019S, the tested form may be a part): as the sequence (Q5S007 whole entry) above, with G2019S counted along it

[9] = tested on: BCRP (human); assay: Apparent permeability in MDCK cells expressing human BCRP; type: ADME, cell-based, Canis lupus familiaris; conditions: dog
[10] = Binding affinity to human PIP5K2C (M1/A421) WT expressed in mammalian system assessed as dissociation constant measured at 1 uM by DiscoveRx KINOMEscan assay
[11] = target: T3, Leucine-rich repeat serine/threonine-protein kinase 2; assay: Inhibition of LRRK2-pSer935 in LRRK2 WT expressing human HEK293 cells and measured after 48 hrs by ICW assay; type: cell-based
[12] = tested on: Receptor-type tyrosine-protein kinase FLT3 (Homo sapiens), P36888 [UNDEFINED MUTATION]; assay: Inhibition of human FLT3 ITD, D835V (V592/Y969) mutant expressed in bacterial system assessed as remaining activity measured at 1 uM by DiscoveRx KINOMEscan assay relative to control; values are per cent of control
Receptor-type tyrosine-protein kinase FLT3 (Homo sapiens), P36888 [UNDEFINED MUTATION], sequence (P36888 whole entry, looked up, stated change not applied): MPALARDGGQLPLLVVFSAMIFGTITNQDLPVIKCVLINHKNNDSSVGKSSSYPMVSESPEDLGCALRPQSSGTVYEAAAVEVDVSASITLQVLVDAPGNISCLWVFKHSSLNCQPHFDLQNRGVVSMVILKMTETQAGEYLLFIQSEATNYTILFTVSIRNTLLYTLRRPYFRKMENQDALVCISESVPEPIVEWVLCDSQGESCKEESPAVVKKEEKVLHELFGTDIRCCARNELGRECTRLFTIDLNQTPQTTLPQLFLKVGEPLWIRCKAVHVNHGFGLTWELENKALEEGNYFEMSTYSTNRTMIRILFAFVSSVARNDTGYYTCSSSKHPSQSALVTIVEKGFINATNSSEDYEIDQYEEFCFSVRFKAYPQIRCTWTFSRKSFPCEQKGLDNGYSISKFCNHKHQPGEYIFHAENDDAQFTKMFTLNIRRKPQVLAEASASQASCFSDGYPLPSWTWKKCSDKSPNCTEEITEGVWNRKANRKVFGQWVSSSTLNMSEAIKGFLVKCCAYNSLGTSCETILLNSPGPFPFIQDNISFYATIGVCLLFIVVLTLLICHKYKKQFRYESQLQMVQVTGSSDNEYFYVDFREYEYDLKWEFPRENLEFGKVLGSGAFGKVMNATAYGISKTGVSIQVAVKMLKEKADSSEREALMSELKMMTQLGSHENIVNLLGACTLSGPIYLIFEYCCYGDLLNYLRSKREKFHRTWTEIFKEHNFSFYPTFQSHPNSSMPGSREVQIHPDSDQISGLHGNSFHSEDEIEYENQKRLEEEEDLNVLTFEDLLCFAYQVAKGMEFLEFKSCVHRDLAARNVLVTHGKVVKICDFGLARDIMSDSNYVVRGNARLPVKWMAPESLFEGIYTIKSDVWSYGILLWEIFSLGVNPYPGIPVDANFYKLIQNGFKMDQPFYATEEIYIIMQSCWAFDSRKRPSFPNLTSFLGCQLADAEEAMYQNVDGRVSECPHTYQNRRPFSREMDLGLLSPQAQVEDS

[13] = tested on: P-glycoprotein (human); assay: Apparent permeability in MDCK-MDR1 cells expressing human P-glycoprotein; type: ADME, cell-based, Canis lupus familiaris; conditions: dog
[14] = tested on: P-glycoprotein (human); assay: Efflux ratio of permeability across basolateral to apical side over apical to basolateral side in MDCK-MDR1 cells expressing human P-glycoprotein; conditions: dog
[15] = target: T2, Phosphatidylinositol 4-kinase beta; assay: Inhibition of human PIK4CB (M1/M828) WT expressed in mammalian system assessed as remaining activity measured at 1 uM by DiscoveRx KINOMEscan assay relative to control
[16] = Clearance in Beagle dog plasma at 1 mg/kg, IV relative to liver blood flow; type: ADME, organism-based, Canis lupus familiaris
[17] = Volume of distribution in steady state in Beagle dog plasma at 1 mg/kg, IV […]; type: ADME, organism-based, Canis lupus familiaris; conditions: read-out: Vdss
[18] = tested on: BCRP (human); assay: Efflux ratio of apparent permeability in MDCK cells expressing human BCRP; type: ADME, cell-based, Canis lupus familiaris; conditions: dog
[19] = target: T5, Interleukin-1 receptor-associated kinase 3 (Homo sapiens) (UniProt Q9Y616); assay: Inhibition of IRAK3 expressed in human PBMCs measured at 10 uM by KiNativ profiling analysis relative to control
T5 sequence (whole entry): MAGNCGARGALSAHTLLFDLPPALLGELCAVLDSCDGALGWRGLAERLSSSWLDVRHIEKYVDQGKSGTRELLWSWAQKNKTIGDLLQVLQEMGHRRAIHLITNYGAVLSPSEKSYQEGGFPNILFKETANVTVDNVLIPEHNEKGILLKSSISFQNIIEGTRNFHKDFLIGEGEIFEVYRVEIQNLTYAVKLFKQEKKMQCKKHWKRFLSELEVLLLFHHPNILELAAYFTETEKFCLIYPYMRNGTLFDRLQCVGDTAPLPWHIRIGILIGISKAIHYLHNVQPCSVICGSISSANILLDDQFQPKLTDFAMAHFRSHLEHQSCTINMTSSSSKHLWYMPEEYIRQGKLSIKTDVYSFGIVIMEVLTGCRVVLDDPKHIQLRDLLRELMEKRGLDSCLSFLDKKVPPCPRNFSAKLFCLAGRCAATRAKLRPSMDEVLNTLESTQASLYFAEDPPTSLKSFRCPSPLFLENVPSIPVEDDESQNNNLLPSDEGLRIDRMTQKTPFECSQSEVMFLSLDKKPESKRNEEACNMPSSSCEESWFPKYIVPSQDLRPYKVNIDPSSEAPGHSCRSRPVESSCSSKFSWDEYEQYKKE

[20] = Ratio of drug level in Md1a/1b C57BL/6 mouse brain to plasma at 5 mg/kg, sc and measured after 0.5 hrs; type: ADME, organism-based
[21] = target: T4, Leucine-rich repeat serine/threonine-protein kinase 2; assay: Binding affinity to human LRRK2 (H970/E2527) G2019S mutant expressed in mammalian system assessed as dissociation constant measured at 1 uM by DiscoveRx KINOMEscan assay
[22] = Clearance in human liver microsomes; type: ADME, Microsome; conditions: read-out: CLH (converted)
[23] = Oral bioavailability in Sprague-Dawley rat plasma at 2 mg/kg relative to liver blood flow; type: ADME, organism-based
[24] = target: T6, Adenosine receptor A2b (Homo sapiens) (UniProt P29275); assay: Binding affinity to human Adenosine receptor A2b at 1 uM by radioligand binding assay relative to control
T6 sequence (whole entry): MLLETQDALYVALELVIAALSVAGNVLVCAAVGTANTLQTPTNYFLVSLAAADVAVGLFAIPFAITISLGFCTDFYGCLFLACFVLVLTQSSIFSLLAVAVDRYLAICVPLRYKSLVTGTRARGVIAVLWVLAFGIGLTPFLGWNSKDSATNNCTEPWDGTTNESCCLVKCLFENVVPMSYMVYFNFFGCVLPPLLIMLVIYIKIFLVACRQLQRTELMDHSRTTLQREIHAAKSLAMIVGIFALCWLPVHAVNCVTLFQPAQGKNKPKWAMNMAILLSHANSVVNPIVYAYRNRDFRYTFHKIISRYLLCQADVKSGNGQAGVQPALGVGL

[25] = Oral bioavailability in Beagle dog plasma at 2 mg/kg relative to liver blood flow; type: ADME, organism-based, Canis lupus familiaris
[26] = target: T1, Leucine-rich repeat serine/threonine-protein kinase 2; assay: Inhibition of LRRK2-WT-pSER935 in C57BL/6 mouse brain at 10 to 150 mg/kg and measured after 1 hrs by western blotting; type: organism-based
[27] = target: Receptor-type tyrosine-protein kinase FLT3 (Homo sapiens) (UniProt P36888); assay: Inhibition of human FLT3 WT expressed in bacterial system assessed as remaining activity measured at 1 uM by DiscoveRx KINOMEscan assay
Receptor-type tyrosine-protein kinase FLT3 (Homo sapiens), sequence (P36888 whole entry): as the sequence (P36888 whole entry, looked up, stated change not applied) above

[28] = target: T4, Leucine-rich repeat serine/threonine-protein kinase 2; assay: Inhibition of LRRK2-pSer935 in LRRK2 G2019S mutant expressing human HEK293 cells and measured after 48 hrs by ICW assay; type: cell-based

Compound | half-life [1] | IC50 [2] | inhibition [3] | clearance [4] | Kd [5] | Ratio [6] | Vd [7] | IC50 [8] | Papp [9] | Kd [10] | IC50 [11] | residual activity [12] | Papp [13] | efflux ratio [14] | Activity [15] | clearance [16] | Vd [17] | efflux ratio [18] | inhibition [19] | Kp at 0.5 h [20] | further results
Cc1c(Nc2nc(N)c3c(C#N)c(N4CCC[C@H]4C)n(C)c3n2)cnn1[C@@H]1CCOC1 | 6 min | 11 nM | 45% | 158 mL/min/kg | 3.7 nM | 0.37 | 1.7 L/kg | 12 nM | 0.7 ×10⁻⁶ cm/s | 190 nM | 180 nM | 25% | 4.6 ×10⁻⁶ cm/s | 1.2 | < 37% | 36.7 mL/min/kg | 1 L/kg | 34 | -6% | 1.05 | Kd [21]: 3.9 nM; CLint scaled [22]: 28.3 mL/min/kg; bioavailability [23]: 5%; inhibition [24]: 18%; bioavailability [25]: 25%; IC50 [26]: 16 nM; inhibition [27]: inactive; IC50 [28]: 80 nM
Cc1c(Nc2nc(N)c3c(C#N)c(N4CCC[C@H]4C)n(C)c3n2)cnn1[C@H]1CCOC1 | 12 min | 22 nM | 29% | 76.7 mL/min/kg | 6.6 nM | 0.24 | 1.1 L/kg | 14 nM | 1.2 ×10⁻⁶ cm/s | 430 nM | 140 nM | 1.9% | 4.3 ×10⁻⁶ cm/s | 0.9 | < 37% | 53.3 mL/min/kg | 1.8 L/kg | 22 | 37% | 0.65 | Kd [21]: 5.5 nM; CLint scaled [22]: 23.3 mL/min/kg; bioavailability [23]: < 1%; inhibition [24]: 26%; bioavailability [25]: 96%; IC50 [26]: 23 nM; inhibition [27]: inactive; IC50 [28]: 51 nM
